For data set [1], the target named is T1, Vascular endothelial growth factor receptor 2 (Homo sapiens, UniProt P35968). Nature of the data set: Inhibition of VEGFR2 (unknown origin) using poly (Glu,Tyr) 4:1 as substrate measured after 1 hr in presence of ATP by ELISA method. For orientation: ELISA stands for enzyme-linked immunosorbent assay.
The test system of data set [2] is MCF7. As to the kind of experiment: cells. As to conditions: Homo sapiens, MCF7, 72 h.
Description: Cytotoxicity against human MCF7 cells assessed as reduction in cell viability incubated for 72 hrs by MTT assay
Data set [3] concerns HCT-116. Nature of the data set: cells. As to conditions: Homo sapiens, HCT-116, 72 h.
Description: Cytotoxicity against human HCT-116 cells assessed as reduction in cell viability incubated for 72 hrs by MTT assay
The test system of data set [4] is HepG2. Nature of the data set: cells. The note with it: Homo sapiens, HepG2, 72 h.
Description: Cytotoxicity against human HepG2 cells assessed as reduction in cell viability incubated for 72 hrs by MTT assay
The test system of data set [5] is HeLa. As to the kind of experiment: Antiproliferative activity against human HeLa cells assessed as reduction in cell growth incubated for 48 hrs by MTT assay. Format: toxicity, cell-based. In general terms: Formazan colour is commonly taken as a measure of viable cells.
Data set [6] has as its system A549. As to the kind of experiment: Antiproliferative activity against human A549 cells assessed as reduction in cell growth incubated for 48 hrs by MTT assay. It counts as toxicity, cell-based. As to conditions: A549, 48 h.
Data set [7] concerns the target T1, Vascular endothelial growth factor receptor 2. Nature of the data set: Inhibition of VEGFR-2 (unknown origin) at 1 uM using Poly(4:1 Glu, Tyr) as substrate by Kinase-Glo Max reagent based luminescence analysis relative to control. A general note: In Kinase-Glo more light means more ATP remaining.
The subject of data set [8] is NCI-H1975. Nature of the data set: Antiproliferative activity against human NCI-H1975 cells assessed as reduction in cell growth incubated for 48 hrs by MTT assay. It counts as toxicity, cell-based. As to conditions: NCI-H1975, 48 h.
Data set [9] in a line: Antiproliferative activity against human HUVEC cells assessed as reduction in cell growth incubated for 48 hrs by MTT assay. Format: toxicity, cell-based.
Data set [10] has as its target T1, Vascular endothelial growth factor receptor 2. As to the kind of experiment: Inhibition of VEGFR-2 (unknown origin).
Data set [11] relates to MCF7. Nature of the data set: Anticancer activity against human MCF7 cells. Format: functional, cell-based.
In data set [12] the test system is HCT-116. Nature of the data set: Anticancer activity against human HCT-116 cells. It counts as functional, cell-based.
Data set [13] has as its system HepG2. As to the kind of experiment: Anticancer activity against human HepG2 cells. Format: functional, cell-based.
In data set [14] the test system is DU-145. Nature of the data set: Antiproliferative activity against human DU-145 cells. Format: functional, cell-based.
For data set [15], the system named is MCF7. Nature of the data set: Antiproliferative activity against human MCF7 cells. It counts as functional, cell-based.

T1 sequence (P35968 whole entry): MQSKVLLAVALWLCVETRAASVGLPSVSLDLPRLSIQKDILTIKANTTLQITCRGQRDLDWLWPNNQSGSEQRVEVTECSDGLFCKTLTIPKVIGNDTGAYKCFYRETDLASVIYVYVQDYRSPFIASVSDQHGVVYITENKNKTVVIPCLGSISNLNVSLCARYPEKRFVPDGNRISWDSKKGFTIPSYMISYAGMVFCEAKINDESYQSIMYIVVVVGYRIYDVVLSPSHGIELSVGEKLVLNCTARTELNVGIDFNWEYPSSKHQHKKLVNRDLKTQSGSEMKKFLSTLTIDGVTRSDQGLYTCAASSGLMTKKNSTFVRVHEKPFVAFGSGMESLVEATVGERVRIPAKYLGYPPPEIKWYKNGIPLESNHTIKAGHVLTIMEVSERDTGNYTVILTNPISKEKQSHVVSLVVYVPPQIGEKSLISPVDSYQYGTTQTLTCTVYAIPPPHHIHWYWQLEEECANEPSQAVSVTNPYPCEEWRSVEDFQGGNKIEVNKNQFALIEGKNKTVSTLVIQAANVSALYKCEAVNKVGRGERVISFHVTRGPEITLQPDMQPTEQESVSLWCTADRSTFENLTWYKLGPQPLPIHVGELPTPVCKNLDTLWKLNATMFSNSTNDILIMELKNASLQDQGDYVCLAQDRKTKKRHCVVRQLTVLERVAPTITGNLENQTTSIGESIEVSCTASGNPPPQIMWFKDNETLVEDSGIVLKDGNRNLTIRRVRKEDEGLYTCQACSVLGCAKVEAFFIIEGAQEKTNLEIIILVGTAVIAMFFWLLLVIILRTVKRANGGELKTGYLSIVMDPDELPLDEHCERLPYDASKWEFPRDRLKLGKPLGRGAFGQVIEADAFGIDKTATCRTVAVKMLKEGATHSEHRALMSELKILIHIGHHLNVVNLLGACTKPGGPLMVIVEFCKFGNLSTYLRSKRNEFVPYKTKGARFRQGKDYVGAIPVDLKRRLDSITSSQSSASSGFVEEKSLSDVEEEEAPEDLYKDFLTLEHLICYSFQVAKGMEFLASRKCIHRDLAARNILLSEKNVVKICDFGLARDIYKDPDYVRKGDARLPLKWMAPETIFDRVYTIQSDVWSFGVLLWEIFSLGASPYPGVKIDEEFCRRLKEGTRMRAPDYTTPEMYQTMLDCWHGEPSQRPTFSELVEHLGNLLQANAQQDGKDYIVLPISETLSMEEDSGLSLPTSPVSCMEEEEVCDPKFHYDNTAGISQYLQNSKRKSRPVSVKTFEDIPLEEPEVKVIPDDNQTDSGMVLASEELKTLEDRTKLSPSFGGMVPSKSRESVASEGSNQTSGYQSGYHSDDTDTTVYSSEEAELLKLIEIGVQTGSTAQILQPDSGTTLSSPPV

The term IC50 denotes the concentration needed to halve the response being measured. Consider `O=C(CCSc1nc2ccccc2o1)Nc1ccc(S(=O)(=O)NC(=O)NC2CCCCC2)cc1`, for which the IC50 in data set [1] was determined as 0.08 µM; in data set [2], 8.93 µM; in [3] it was 7.14 µM; in [4], 5.93 µM.
A word on the inhibition: it is how much of the control response was suppressed. `O=C(Nc1ccc(OC(F)(F)F)cc1)Nc1ccc2oc(-c3ccccc3Cl)nc2c1`: the results for the IC50 in data set [5], in data set [6] and in data set [8] were 0.28 µM, 7.61 µM and 1.4 µM, respectively. This compound also returned an inhibition in [7] of 98.6%. Further, in data set [9], the IC50 at 48 h turned out to be 8.46 µM.
Take `O=C(CN1C(=O)S/C(=C\c2ccc(F)cc2)C1=O)Nc1nc2ccc([N+](=O)[O-])cc2s1`: the IC50 in data set [10] was 0.091 µM; in data set [11] it was 3.84 µM; in [12], 5.61 µM; in [13] it was 7.92 µM.
For the compound `COc1nc(C(=O)Nc2nc3cc(F)ccc3[nH]2)ccc1-n1cnc(C)c1`, the IC50 in data set [14] worked out at 9.2 µM; in data set [15], 8.9 µM.

The values are drawn from ChEMBL document CHEMBL6103539, “A critical analysis of design, binding pattern and SAR of benzo-fused heteronuclear compounds as VEGFR-2 inhibitors” (Bioorg Med Chem, 2024).
